Experimental data reported in PubChem BioAssay AID248 (DTP/NCI, 2004).
Several values for one entry are separate records, joined by “and”; a condition that tells them apart may be missing. Identical values can stand only once. Inconclusive results and toxic doses are left out.

Test system: L1210 leukemia ip in BDF1 mice, survival T/C
Test: NCI In Vivo Anticancer Drug Screen. Data for tumor model L1210 Leukemia (intraperitoneal) in B6D2F1 (BDF1) mice
Details: endpoint: mean survival time, higher = longer survival
Method in brief: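 Mice bearing the transplanted tumor received compound or vehicle. Survival of the treated group was divided by that of the vehicle-treated control group to give the ratio.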

Structure (SMILES): O=C(Nc1ccc(C2=NCCN2)cc1)c1ccc(C(=O)Nc2ccc(C3=NCCN3)cc2)c(Cl)c1
- T/C (dose: 1.8 mg/kg/injection, schedule: Q01DX009 (ip), vehicle: Klucel (hydroxypropylcellulose) (HPC)): 100 % of control and 105 % of control
- T/C (dose: 2.0 mg/kg/injection, schedule: Q01DX010 (ip), vehicle: other): 94 % of control and 101 % of control
- T/C (dose: 2.0 mg/kg/injection, schedule: Q01DX Z (ip), vehicle: saline): 103 % of control
- T/C (dose: 2.0 mg/kg/injection, schedule: Q01DX Z (sc), vehicle: carboxymethylcellulose (CMC)): 110 % of control
- T/C (dose: 2.5 mg/kg/injection, schedule: Q04DX002 (ip), vehicle: Klucel (hydroxypropylcellulose) (HPC)): 95 % of control
- T/C (dose: 3.0 mg/kg/injection, schedule: Q03DX Z (ip), vehicle: saline): 114 % of control
- T/C (dose: 3.5 mg/kg/injection, schedule: Q01DX009 (ip), vehicle: Klucel (hydroxypropylcellulose) (HPC)): 107 % of control and 115 % of control
- T/C (dose: 4.0 mg/kg/injection, schedule: Q01DX010 (ip), vehicle: other): 107 % of control and 117 % of control
- T/C (dose: 4.0 mg/kg/injection, schedule: Q01DX Z (sc), vehicle: carboxymethylcellulose (CMC)): 110 % of control
- T/C (dose: 5.0 mg/kg/injection, schedule: Q04DX002 (ip), vehicle: Klucel (hydroxypropylcellulose) (HPC)): 95 % of control
- T/C (dose: 6.0 mg/kg/injection, schedule: Q03DX Z (ip), vehicle: saline): 118 % of control
- T/C (dose: 6.7 mg/kg/injection, schedule: Q01DX010 (ip), vehicle: other): 124 % of control
- T/C (dose: 6.7 mg/kg/injection, schedule: Q01DX015 (ip), vehicle: carboxymethylcellulose (CMC)): 116 % of control
- T/C (dose: 7.8 mg/kg/injection, schedule: Q02DX010 (ip), vehicle: carboxymethylcellulose (CMC)): 117 % of control
- T/C (dose: 8.0 mg/kg/injection, schedule: Q01DX Z (ip), vehicle: saline): 188 % of control
- T/C (dose: 10.0 mg/kg/injection, schedule: Q01DX015 (ip), vehicle: carboxymethylcellulose (CMC)): 119 % of control
- T/C (dose: 11.0 mg/kg/injection, schedule: Q02DX010 (ip), vehicle: carboxymethylcellulose (CMC)): 181 % of control
- T/C (dose: 12.5 mg/kg/injection, schedule: Q02DX004 (im), vehicle: olive oil, sesame oil, peanut oil): 116 % of control and 119 % of control
- T/C (dose: 13.0 mg/kg/injection, schedule: Q## X004 (ip), vehicle: carboxymethylcellulose (CMC)): 105 % of control and 106 % of control
- T/C (dose: 15.0 mg/kg/injection, schedule: Q01DX010 (ip), vehicle: other): 166 % of control
- T/C (dose: 15.0 mg/kg/injection, schedule: Q01DX015 (ip), vehicle: carboxymethylcellulose (CMC)): 169 % of control and 171 % of control
- T/C (dose: 16.0 mg/kg/injection, schedule: Q01DX010 (ip), vehicle: water): 156 % of control
- T/C (dose: 16.0 mg/kg/injection, schedule: Q01DX Z (ip), vehicle: saline): 173 % of control
- T/C (dose: 17.4 mg/kg/injection, schedule: Q02DX008 (ip), vehicle: carboxymethylcellulose (CMC)): 121 % of control
- T/C (dose: 20.0 mg/kg/injection, schedule: Q01DX001 (ip), vehicle: saline): 114 % of control
- T/C (dose: 20.0 mg/kg/injection, schedule: Q## X004 (ip), vehicle: carboxymethylcellulose (CMC)): 103 % of control and 114 % of control
- T/C (dose: 22.5 mg/kg/injection, schedule: Q01DX010 (ip), vehicle: other): 178 % of control
- T/C (dose: 24.0 mg/kg/injection, schedule: Q02DX010 (ip), vehicle: carboxymethylcellulose (CMC)): 168 % of control
- T/C (dose: 25.0 mg/kg/injection, schedule: Q01DX001 (im), vehicle: steriod suspending solution): 103 % of control
- T/C (dose: 26.0 mg/kg/injection, schedule: Q02DX008 (ip), vehicle: carboxymethylcellulose (CMC)): 168 % of control
- T/C (dose: 26.0 mg/kg/injection, schedule: Q02DX010 (ip), vehicle: carboxymethylcellulose (CMC)): 169 % of control and 182 % of control
- T/C (dose: 28.0 mg/kg/injection, schedule: Q07DX Z (ip), vehicle: saline): 121 % of control
- T/C (dose: 29.0 mg/kg/injection, schedule: Q01DX001 (ip), vehicle: carboxymethylcellulose (CMC)): 122 % of control
- T/C (dose: 29.0 mg/kg/injection, schedule: Q01DX001 (ip), vehicle: other): 109 % of control
- T/C (dose: 30.0 mg/kg/injection, schedule: Q01DX001 (ip), vehicle: carboxymethylcellulose (CMC)): 116 % of control and 118 % of control
- T/C (dose: 30.0 mg/kg/injection, schedule: Q## X004 (ip), vehicle: carboxymethylcellulose (CMC)): 113 % of control and 115 % of control
- T/C (dose: 32.0 mg/kg/injection, schedule: Q01DX Z (sc), vehicle: carboxymethylcellulose (CMC)): 185 % of control
- T/C (dose: 33.7 mg/kg/injection, schedule: Q01DX010 (ip), vehicle: other): 167 % of control
- T/C (dose: 39.0 mg/kg/injection, schedule: Q01DX015 (ip), vehicle: carboxymethylcellulose (CMC)): 119 % of control
- T/C (dose: 39.0 mg/kg/injection, schedule: Q02DX008 (ip), vehicle: carboxymethylcellulose (CMC)): 184 % of control and 192 % of control
- T/C (dose: 39.0 mg/kg/injection, schedule: Q02DX010 (ip), vehicle: other): 167 % of control
- T/C (dose: 40.0 mg/kg/injection, schedule: Q01DX001 (ip), vehicle: saline): 106 % of control
- T/C (dose: 42.0 mg/kg/injection, schedule: Q01DX001 (ip), vehicle: carboxymethylcellulose (CMC)): 122 % of control
- T/C (dose: 42.0 mg/kg/injection, schedule: Q01DX001 (ip), vehicle: other): 117 % of control
- T/C (dose: 44.0 mg/kg/injection, schedule: Q01DX001 (ip), vehicle: carboxymethylcellulose (CMC)): 113 % of control
- T/C (dose: 48.0 mg/kg/injection, schedule: Q01DX001 (ip), vehicle: carboxymethylcellulose (CMC)): 113 % of control
- T/C (dose: 48.0 mg/kg/injection, schedule: Q01DX010 (ip), vehicle: water): 157 % of control
- T/C (dose: 48.4 mg/kg/injection, schedule: Q01DX001 (ip), vehicle: carboxymethylcellulose (CMC)): 104 % of control
- T/C (dose: 50.0 mg/kg/injection, schedule: Q01DX010 (sc), vehicle: olive oil, sesame oil, peanut oil): 123 % of control
- T/C (dose: 50.0 mg/kg/injection, schedule: Q01DX015 (ip), vehicle: carboxymethylcellulose (CMC)): 100 % of control and 124 % of control
- T/C (dose: 50.0 mg/kg/injection, schedule: Q02DX004 (im), vehicle: olive oil, sesame oil, peanut oil): 156 % of control
- T/C (dose: 53.6 mg/kg/injection, schedule: Q## X032 (ip), vehicle: carboxymethylcellulose (CMC)): 162 % of control
- T/C (dose: 54.0 mg/kg/injection, schedule: Q02DX010 (ip), vehicle: carboxymethylcellulose (CMC)): 181 % of control
- T/C (dose: 54.0 mg/kg/injection, schedule: Q02DX010 (ip), vehicle: other): 157 % of control
- T/C (dose: 54.0 mg/kg/injection, schedule: Q## X032 (ip), vehicle: carboxymethylcellulose (CMC)): 153 % of control
- T/C (dose: 56.0 mg/kg/injection, schedule: Q01DX009 (ip), vehicle: Klucel (hydroxypropylcellulose) (HPC)): 93 % of control
- T/C (dose: 56.0 mg/kg/injection, schedule: Q07DX Z (ip), vehicle: saline): 123 % of control
- T/C (dose: 58.5 mg/kg/injection, schedule: Q02DX008 (ip), vehicle: carboxymethylcellulose (CMC)): 166 % of control
- T/C (dose: 58.7 mg/kg/injection, schedule: Q02DX010 (ip), vehicle: carboxymethylcellulose (CMC)): 162 % of control
- T/C (dose: 62.5 mg/kg/injection, schedule: Q01DX010 (oral), vehicle: other): 113 % of control
- T/C (dose: 67.0 mg/kg/injection, schedule: Q## X004 (ip), vehicle: carboxymethylcellulose (CMC)): 157 % of control and 161 % of control
- T/C (dose: 74.0 mg/kg/injection, schedule: Q01DX001 (ip), vehicle: carboxymethylcellulose (CMC)): 120 % of control
- T/C (dose: 80.0 mg/kg/injection, schedule: Q01DX001 (ip), vehicle: saline): 119 % of control
- T/C (dose: 80.0 mg/kg/injection, schedule: Q## X032 (ip), vehicle: carboxymethylcellulose (CMC)): 163 % of control and 178 % of control and 188 % of control
- T/C (dose: 81.0 mg/kg/injection, schedule: Q02DX010 (ip), vehicle: carboxymethylcellulose (CMC)): 106 % of control
- T/C (dose: 96.0 mg/kg/injection, schedule: Q01DX001 (ip), vehicle: carboxymethylcellulose (CMC)): 156 % of control
- T/C (dose: 96.0 mg/kg/injection, schedule: Q01DX001 (ip), vehicle: other): 162 % of control
- T/C (dose: 100.0 mg/kg/injection, schedule: Q01DX010 (sc), vehicle: olive oil, sesame oil, peanut oil): 93 % of control
- T/C (dose: 112.0 mg/kg/injection, schedule: Q07DX Z (ip), vehicle: saline): 121 % of control
- T/C (dose: 120.0 mg/kg/injection, schedule: Q## X032 (ip), vehicle: carboxymethylcellulose (CMC)): 180 % of control and 181 % of control
- T/C (dose: 125.0 mg/kg/injection, schedule: Q01DX010 (oral), vehicle: other): 107 % of control
- T/C (dose: 180.0 mg/kg/injection, schedule: Q## X032 (ip), vehicle: carboxymethylcellulose (CMC)): 94 % of control
- T/C (dose: 250.0 mg/kg/injection, schedule: Q01DX010 (oral), vehicle: other): 111 % of control
